Assay results published in patent US9034863B2, “Compositions and methods for inhibiting entry of a hepatic virus” (The Board of Trustees of the University of Illinois, priority 2008, dated 2015).

What was measured:
Assay type in all cases: cell-based, Hepatitis C virus (HCV)
HCVcc [1] = assay: Secretion of infectious HCVcc, extracellular infectivity titration; conditions: 30 μM, 24-96 hours post-treatment
Description: Cell supernatants were serially diluted 10-fold in cDMEM and 100 μl was used to infect, in triplicate, 4×10^3 naïve Huh7 cells per well in 96-well plates (BD Biosciences). The inoculum was incubated with cells for 24 hours at 37° C. and then overlayed with 150 μl complete DMEM containing 0.4% methylcellulose (w/v) (Fluka BioChemika, Switzerland) to give a final concentration of 0.25% methylcellulose. Seventy-two hours post-infection, medium was removed, cells were fixed with 4% paraformaldehyde (Sigma) and immunohistochemical staining for HCV E2 was performed. […] The HCV E2 glycoprotein was detected by incubation at room temperature with 1×PBS containing 0.5% (v/v) TRITON X-100 and 3% (w/v) BSA and a 1:500 dilution of the human monoclonal anti-HCV E2 antibody C1. Bound C1 was subsequently detected by a 1 hour incubation with a 1:1000 dilution of an HRP-conjugated anti-human antibody (Pierce, Rockford, Ill.) followed by a 30 minute incubation with an AEC detection substrate (BD Biosciences). […] Viral infectivity titers are expressed as FFU per milliliter of supernatant (FFU/ml), determined by the average number of E2-positive foci detected in triplicate samples at the highest HCV-positive dilution.
Huh7 cultures were inoculated with HCVcc at an MOI of 0.01 FFU cell-1. […] Infectivity titers are expressed as mean FFU/ml±SD for triplicate samples.

HCVcc^G451R = assay: Infection of Huh7 cells with SR-B1-independent HCVcc G451R, intracellular HCV RNA
Description: (§1) Studies have shown that a G451R mutation in the viral envelope glycoprotein (E2) results in HCV virions of […] density and faster infection kinetics (thong, et al. (2006) J. Virol. 80:11082-11093). […] Thus, if ezetimibe was blocking HCV entry via an SR-B1 mediated mechanism, it would be expected that the mutant G451R virus would be less susceptible to the effects of ezetimibe. As a result, experiments were performed to assess the antiviral efficacy of ezetimibe against the SR-B1-independent HCVcc^G451R virus. Monolayers of Huh7 cells were inoculated with either wild-type HCVcc^JFH-1 or HCVcc^G451R at an MOI of 0.01 FFU/cell for 12 hours. Ezetimibe treatment at concentrations of 15 or 30 μM was initiated (and then continued) either 6 hours prior to infection, during the 12 hour incubation of the virus on the cells, or immediately following the 12 hour viral inoculation period. Ezetimibe at a concentration of 30 μM inhibited HCVcc^JFH-1 infection approximately 10-fold at 48 hours post-infection.

HCVcc [2] = assay: HCV cell-to-cell spread, foci-size assay with cell-free spread blocked by anti-E2 antibody
Description: Using an established antibody blocking approach (Timpe, et al. (2008) Hepatology 47:17-24), in which an antibody to the HCV E2 glycoprotein is used to block cell-free virus spread, the role of NPC1L1, CD81, or claudin-1 in cell-to-cell spread was tested. Briefly, subconfluent Huh7 cells were inoculated with HCVcc at a low multiplicity of infection (MOI) of 0.01 ffu/cell for 15 hours to allow sufficient time for initial viral entry into the primary cells (Sabahi, et al. (2010) Virology 407:110-9). Cells were then washed and cell-free virus spread was blocked by addition of an anti-E2 antibody at a concentration which neutralizes extracellular virus infection of cells. In parallel, cultures were co-treated with antibodies to CD81, Claudin-1 or NPC1L1 to determine if blocking of these factors prevents cell-to-cell spread. At seventy two hours post-infection, monolayers were fixed and stained for HCV-positive foci. Spread was determined by the size of the foci, as quantified by the number of cells per foci. Foci composed of 1-2 HCV E2-positive cells, which could have formed via cell division, were scored as infections that had not spread cell-to-cell, and are referred to as one-two cell foci, and represent a baseline for the assay. Foci containing […] cells were scored as infections that had successfully spread cell-to-cell, and are referred to as multicellular foci.
To confirm the role of NPC1L1 in HCV spread and verify that ezetimibe inhibits HCV cell-to-cell spread, Huh7-1 cells were inoculated with HCV JFH-1 at an MOI of 0.01 for 16 hours to allow cell-free entry to initiate infection in a small percentage of cells, before being washed and then incubated with increasing concentrations of ezetimibe. Once again extracellular HCV entry was blocked by the addition of anti-E2 antibody to neutralize cell-free virus in all cultures. […] Cells were fixed at 72 hours post-infection, and then stained to detect the number and the size of the E2-positive foci. The foci were counted and scored as one-two cell foci or as multicellular foci. […] To ensure that multicellular foci were not a result of cell division over the time course of the experiment, the same experiment was repeated in non-growing Huh7-1 cells and similar results were obtained.
Because HCV cell-free spread requires the production and secretion of infectious viral particles from infected cells, an alternative way to block cell-free virus spread is to prevent the release of infectious virus from already infected cells. […] It was of interest to determine whether the VLDL secretory pathway and related virion lipid modifications are required for cell-to-cell spread. […]

wild-type HCVcc^JFH-1 = assay: Infection of Huh7 cells with wild-type HCVcc JFH-1, intracellular HCV RNA; conditions: 30 μM, 48 hours post-infection
Description: as §1

O=C1[C@H](CC[C@H](O)c2ccc(F)cc2)[C@@H](c2ccc(O)cc2)N1c1ccc(F)cc1 [ezetimibe, 1-(4-fluorophenyl)-(3R)-[3-(4-fluorophenyl)-(3S)-hydroxypropyl]-(45)-(4-hydroxyphenyl)-2-azetidinone]
secretion of infectious HCVcc (infectivity titers) (HCVcc [1]): did not inhibit secretion of infectious HCVcc | infection blocked (HCVcc^G451R): ~100% | size of foci (HCVcc [2]; 30 μM added post-viral inoculation): foci of 1-2 cells | number of independent infection initiation events (foci of 1-2 E2-positive cells) (HCVcc [2]; added post-infection, 24 hours post-infection): did not block infection | size of the E2-positive foci formed (HCVcc [2]; increasing concentrations added post-inoculation, 72 hours post-infection): dose-dependent inhibition | inhibition of HCVcc JFH-1 infection (wild-type HCVcc^JFH-1): approximately 10 fold

O=C1C[C@@H](c2ccc(O)cc2)Oc2cc(O)cc(O)c21 [naringenin]
HCV cell-to-cell spread (number and size of foci) (HCVcc [2]; non-growing Huh7-1 cells, five days post-infection, vs vehicle): inhibition of cell-to-cell spread was not detected
